For this assay, the target named is T1, α1β3γ2 GABAA receptor, γ2F464S variant (Homo sapiens, UniProt P14867+P18507+P28472, F464S).
T1 construct: expressed in transfected cells; host or cells: HEK293T
T1 sequence (P14867 28-456): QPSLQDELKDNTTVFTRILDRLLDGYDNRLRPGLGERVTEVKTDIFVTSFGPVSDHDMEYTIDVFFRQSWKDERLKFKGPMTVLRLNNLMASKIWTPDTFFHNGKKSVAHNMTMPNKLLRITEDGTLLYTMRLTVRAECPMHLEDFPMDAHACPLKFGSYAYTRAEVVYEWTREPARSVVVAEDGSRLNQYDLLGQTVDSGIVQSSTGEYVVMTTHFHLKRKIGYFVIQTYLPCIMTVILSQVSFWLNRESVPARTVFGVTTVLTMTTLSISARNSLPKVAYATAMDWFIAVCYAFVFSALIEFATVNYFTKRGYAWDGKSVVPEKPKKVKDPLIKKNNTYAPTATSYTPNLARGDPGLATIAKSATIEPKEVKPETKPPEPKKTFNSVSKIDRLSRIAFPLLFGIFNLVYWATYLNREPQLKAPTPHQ
T1 sequence (P28472 26-473 isoform P28472-2): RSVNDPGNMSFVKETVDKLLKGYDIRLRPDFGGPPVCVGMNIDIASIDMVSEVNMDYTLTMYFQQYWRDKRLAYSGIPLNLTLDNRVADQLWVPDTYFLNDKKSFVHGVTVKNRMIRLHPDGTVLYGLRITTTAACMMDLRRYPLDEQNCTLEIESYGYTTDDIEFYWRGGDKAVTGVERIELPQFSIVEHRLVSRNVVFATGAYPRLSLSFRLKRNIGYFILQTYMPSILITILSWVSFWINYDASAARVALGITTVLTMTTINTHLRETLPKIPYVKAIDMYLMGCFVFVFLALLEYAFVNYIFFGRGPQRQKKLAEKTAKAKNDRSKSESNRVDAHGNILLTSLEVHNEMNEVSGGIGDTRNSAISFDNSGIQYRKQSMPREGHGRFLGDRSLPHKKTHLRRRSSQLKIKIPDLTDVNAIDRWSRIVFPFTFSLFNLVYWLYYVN
T1 sequence (P18507 40-475 F464S): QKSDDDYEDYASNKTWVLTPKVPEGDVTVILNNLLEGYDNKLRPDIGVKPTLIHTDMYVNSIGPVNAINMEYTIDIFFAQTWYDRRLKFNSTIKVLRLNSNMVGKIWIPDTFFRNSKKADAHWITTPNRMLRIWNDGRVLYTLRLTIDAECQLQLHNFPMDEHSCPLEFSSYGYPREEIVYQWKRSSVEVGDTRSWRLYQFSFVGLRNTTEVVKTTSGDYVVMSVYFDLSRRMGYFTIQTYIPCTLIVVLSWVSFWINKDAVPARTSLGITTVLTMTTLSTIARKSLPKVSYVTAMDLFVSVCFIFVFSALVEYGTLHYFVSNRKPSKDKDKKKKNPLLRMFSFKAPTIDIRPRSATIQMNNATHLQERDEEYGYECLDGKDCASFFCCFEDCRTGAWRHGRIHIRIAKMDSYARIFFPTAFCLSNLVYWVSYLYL
Nature of the assay: Automated patch clamp of GABA-elicited currents (SyncroPatch 384PE), γ2F464S. The format is cell-based. Conditions: mean. The procedure:
The coding sequences of human α1 (GABRA1, NM_000806), β3 (GABRB3, NM_021912), and γ2 (GABRG2, NM_198904.2) GABAAR subunits were subcloned into the pcDNA3.1 expression vectors (Invitrogen, Waltham, MA, USA).
HEK293T cells (ATCC, CRL-11268) were cultured at 37 °C in a humidified 5% CO2 incubator and maintained in Dulbecco’s modified Eagle’s medium (Invitrogen) supplemented with 10% fetal bovine serum (Life Technologies, Carlsbad, CA, USA), and 100 IU/mL of penicillin/streptomycin (Life Technologies). For the expression experiments, 4 × 10^5 cells were transfected using polyethylenimine (PEI) reagent (40 kD, Polysciences, Warrington, PA, USA) at a DNA: to transfection reagent ratio of 1:2.5 and harvested 36 h after transfection. To express WT and variant α1β3γ2 receptors, a total of 3 µg of α1, β3, and γ2 (WT or mutant) subunit cDNAs were transfected at a ratio of 1:1:1 into 60 mm culture dishes. For the mock-transfected condition, an empty pcDNA3.1 vector was added for a final cDNA transfection amount of 3 μg. For the electrophysiology experiments, 2.5 × 10^5 cells were plated in 100 mm culture dishes and transfected after 24 h with 3 μg of cDNA of each α1, β3, γ2 (wild-type or mutant) subunit, using X-tremeGENE HP DNA transfection Reagent (Roche Diagnostics, Basel, Switzerland), following the manufacturer’s protocol. Recordings were obtained forty-eight hours after transfection.
Whole-cell patch clamp recordings were conducted according to the manufacturer’s standard procedure for the SyncroPatch 384 [31]. Whole-cell voltage-clamp recordings were performed at room temperature on HEK293T cells 48 h after transfection with GABAAR subunits, using the SyncroPatch 384PE (Nanion Technologies, Munich, Germany). Cells, at a concentration of 400,000 cells/mL, were harvested in suspension in external solution containing 140 mM of NaCl, 2 mM of CaCl2, 4 mM of KCl, 1 mM of MgCl2, 5 mM of glucose, and 10 mM of HEPES (pH 7.4 with NaOH, 298 mOsm). The cells were loaded in a multi-hole (4 holes per well) 384-well Nanion patch clamp (NPC) chip with a thick borosilicate glass bottom and an average resistance pore size of […]. Built-in electrophysiological protocols were used, and the data were digitized using PatchControl 384 (Nanion Technologies) application. Using PatchControl 384, electrophysiological parameters, such as seal resistance, capacitance, and series resistance, were determined for each well after the application of a test pulse, and subsequently monitored over time. […] The currents were normalized to the maximal response of each well, and the concentration–response curves were calculated from single-point additions. The EC50 values for each variant or wild-type receptor were calculated across multiple wells for each experimental condition.
Background: The patch-clamp technique gives a direct electrical read-out from membranes.

Turning to `NCCCC(=O)O` [GABA, γ-aminobutyric acid], under “1 mM GABA for 5 ms, HEK293T, -80 mV”, the Deactivation is reported as 332.6 ms. The “IMAX (maximal GABA-evoked peak current)” value (1 mM GABA for 5 ms, HEK293T) is 0.96 nA. The “IMAX variant/IMAX WT” value (1 mM GABA) was found to be 47.93%. Besides, the “Rise Time” value (10–90% rise time, 1 mM GABA for 5 ms, HEK293T) turned out to be 29.22 ms.

For the origin of these results see article PMC10046037, “GABRG2 Variants Associated with Febrile Seizures” (Biomolecules, 2023).
